Read-outs that look alike come from different tables or passages of the source.
Experiments:
[1] = system: anterior horn motor neurons
tau AT8+ NFT = details: averaged across 7 cortical regions
myelinated axon fibers = details: 7 of 16 vervets exposed to BMAA; NS, p=0.0956
IbA1+ microglia = details: for IbA1+ Density / IbA1+ microglia Size: median ± SEM, n = 8
[2] = system: TDP-43+ anterior horn motor neurons
[3] = vervet spinal cord, 210 mg/kg/day oral, 140 days, median ± SEM
[4] = lateral corticospinal tracts, Cervical Segment
[5] = lateral corticospinal tracts, Lumbar Segment
[6] = anterior horn, 210 mg/kg/day, 140 days, median ± SEM
[7] = lateral corticospinal tract, stimulated by BMAA dosing

For `CNC[C@H](N)C(=O)O` [BMAA, β-N-methylamino-L-alanine], the “decrease of anterior horn neuronal numbers” value ([1]; BMAA 210 mg/kg/day, 140 days, p=0.0016) was 23%, the “greater frequency of eosinophilic neurons vs rice flour controls” value ([1]; cervical spinal cord anterior horns, BMAA 210 mg/kg/day, 140 days, p=0.024) was 4.3 fold and the “reduction in size of eosinophilic lower motor neurons” value ([1]; cervical spinal cord anterior horns, p<0.0001) was 40%. For the same molecule, the “median total BMAA concentration in spinal cord tissues” value (BMAA and BMAA L-serine dosing cohorts pooled, ±13.7 SE) was 61.4 µg/g, the “Free BMAA per gram of spinal cord tissues” value [3] was 8.9 ± 3.9 ^NS μg/g and the “Hydrolyzed Protein Pellet BMAA per gram of spinal cord tissues” value [3] was 0.5 ± 0.3 ^NS μg/g. The “Hydrolyzed Supernatant BMAA per gram of spinal cord tissues” value [3] was 34.0 ± 20.5 ^NS μg/g, the “increase of median cortical tau AT8+ NFT density” value (tau AT8+ NFT; p<0.0001, n=8) was 3.1 fold and the “increase of median numbers of GFAP+ astroglia” value (GFAP+ astroglia; anterior horn of the lumbar spinal cord, p=0.008, n=8) was 44%. For the same molecule, the “increase of density of GFAP+ activated astroglia” value (GFAP+ astroglia; anterior horns of the lumbar spinal cord, p=0.008) was 1.4 fold, the “vervets with loss of myelinated axon fiber staining in the lateral corticospinal tracts” value (myelinated axon fibers) was 44% and the “density and total area covered by IbA1+ microglia, cervical compared to lumbar segments” value (IbA1+ microglia; BMAA-dosed primates, p=0.0039) was 1.5 fold. For the same molecule, the “IbA1+ Density” value (IbA1+ microglia; [4]) was 1831.8 ± 206.9 Ct, the “IbA1+ microglia Size” value (IbA1+ microglia; [4]) was 15.4 ± 1.7^NS Px and the “IbA1+ Density” value (IbA1+ microglia; [5]) was 1213.7 ± 151.5^NS Ct. The “IbA1+ microglia Size” value (IbA1+ microglia; [5]) was 13.9 ± 1.9^NS Px, the “increase of total area covered by IbA1+ microglia vs rice flour controls” value (IbA1+ microglia; lateral corticospinal tracts, cervical spinal cord, p=0.011, n=8) was 1.6 fold and the “increase of median density of IbA1+ microglia vs rice flour controls” value (IbA1+ microglia; lateral corticospinal tracts, cervical spinal cord, p=0.048, n=8) was 1.7 fold. The “effect on the size of Iba1+ microglia” value (IbA1+ microglia; lateral corticospinal tracts, NS, p=0.260, n=8) was “did not have a significant effect”, the “vervets with cytoplasmic mislocalization of FUS protein” value ([2]; 2 of the 16 BMAA-dosed vervets) was 12.5% and the “vervets with neurons positive for TDP-43 cytoplasmic inclusion bodies” value ([2]; 12 of 16 vervets fed BMAA) was 75%. The “number of TDP-43+ motor neurons per region of interest, All Spinal Cord Segments” value [2, 6] was 4.5 ± 1.7, the “number of TDP-43+ motor neurons per region of interest, Cervical Segment” value [2, 6] was 3.0 ± 1.9 and the “number of TDP-43+ motor neurons per region of interest, Lumbar Segment” value [2, 6] was 3.0 ± 3.1. For the same molecule, the “mean density and distribution of TDP-43+ inclusions vs controls” value ([2]; toxin-dosed vervets, p=0.024) was 5 fold.
With `N[C@@H](CO)C(=O)O` [L-serine] the “effect of L-serine coadministration on median concentrations of BMAA in spinal cord” value (any fraction of the vervet spinal cord) was “did not significantly reduce”, the “attenuation of BMAA-induced tau NFT density by coadministration of L-serine” value (tau AT8+ NFT) was 40% and the “reduction of total number of GFAP+ astroglia by coadministration of L-serine” value (GFAP+ astroglia; anterior horn of the lumbar spinal cord, BMAA + L-serine both 210 mg/kg/day, p=0.008) was 21%. The “reduction of total area of GFAP+ astroglia by coadministration of L-serine” value (GFAP+ astroglia; anterior horn of the lumbar spinal cord, automated image analysis, p=0.007) was 20%, the “attenuation of mean Iba1+ microglia distribution by coadministration of L-serine” value (IbA1+ microglia; [7]) was 32% and the “attenuation of CD68+ microglial expression by coadministration of L-serine” value (CD68+ microglia; [7]) was 24%. For the same molecule, the “effect of L-serine coadministration on CD68+ microglial nodule numbers, size and expression intensity” value (CD68+ microglia; p=0.01, n=8) was “reduced”.

Reference: US20210164051A1, “METHODS OF DETECTION AND ANALYSIS OF NUCLEIC ACID IN NEURAL-DERIVED EXOSOMES” (priority 2019, published 2021)
